This note sets out measurements from ChEMBL document CHEMBL4680163, “Discovery of potent epidermal growth factor receptor (EGFR) degraders by proteolysis targeting chimera (PROTAC)” (Eur J Med Chem, 2020).

Active and inactive are the calls of the source. No cut-off for these calls is given here.

For assay [1], the system named is HCC827. Description: Induction of cell cycle arrest in human HCC827 cells assessed as accumulation in G1 phase at 1 uM incubated for 32 hrs by PI staining based flow cytometry analysis (reference value: 50.48 %). It counts as functional.
The target of assay [2] is Epidermal growth factor receptor (Homo sapiens) (UniProt P00533). Description: Inhibition of EGFR in human HCC827 cells assessed as reduction in EGFR phosphorylation incubated for 36 hrs by Western blot analysis. It counts as cell-based. As to conditions: dose 0.1-1 µM.
In assay [3] the test system is HCC827. As to the kind of experiment: Induction of apoptosis in human HCC827 cells assessed as viable cells at 0.1 uM incubated for 32 hrs by annexin V-FITC and PI staining based flow cytometry analysis (reference value: 76.79 %). It counts as functional. As to conditions: read-out: Activity.
The subject of assay [4] is HCC827. Description: Induction of apoptosis in human HCC827 cells assessed as early apoptotic cells at 0.1 uM incubated for 32 hrs by annexin V-FITC and PI staining based flow cytometry analysis (reference value: 2.31 %). It counts as functional.
In assay [5] the test system is HCC827. As to the kind of experiment: Induction of apoptosis in human HCC827 cells assessed as late apoptotic cells at 0.1 uM incubated for 32 hrs by annexin V-FITC and PI staining based flow cytometry analysis (reference value: 14.23 %). It counts as functional.
Assay [6] relates to HCC827. Description: Induction of apoptosis in human HCC827 cells assessed as necrotic cells at 0.1 uM incubated for 32 hrs by annexin V-FITC and PI staining based flow cytometry analysis (reference value: 6.68 %). It counts as functional.
For assay [7], the system named is HCC827. As to the kind of experiment: Induction of apoptosis in human HCC827 cells assessed as viable cells at 1 uM incubated for 32 hrs by annexin V-FITC and PI staining based flow cytometry analysis (reference value: 72.15 %). It counts as functional. The conditions noted are these: read-out: Activity.
Assay [8] has as its system HCC827. As to the kind of experiment: Induction of apoptosis in human HCC827 cells assessed as early apoptotic cells at 1 uM incubated for 32 hrs by annexin V-FITC and PI staining based flow cytometry analysis (reference value: 2.72%). It counts as functional.
For assay [9], the system named is HCC827. As to the kind of experiment: Induction of apoptosis in human HCC827 cells assessed as late apoptotic cells at 1 uM incubated for 32 hrs by annexin V-FITC and PI staining based flow cytometry analysis (reference value: 18.02%). It counts as functional.
Assay [10] relates to HCC827. As to the kind of experiment: Induction of apoptosis in human HCC827 cells assessed as necrotic cells at 1 uM incubated for 32 hrs by annexin V-FITC and PI staining based flow cytometry analysis (reference value: 7.12 %). It counts as functional.
Assay [11] concerns HCC827. As to the kind of experiment: Induction of cell cycle arrest in human HCC827 cells assessed as accumulation in G1 phase at 0.1 uM incubated for 32 hrs by PI staining based flow cytometry analysis (reference value: 50.48 %). It counts as functional.
Assay [12] relates to HCC827. Description: Induction of cell cycle arrest in human HCC827 cells assessed as accumulation in G2 phase at 0.1 uM incubated for 32 hrs by PI staining based flow cytometry analysis (reference value: 8.25 %). It counts as functional.
The test system of assay [13] is HCC827. Description: Induction of cell cycle arrest in human HCC827 cells assessed as accumulation in S phase at 0.1 uM incubated for 32 hrs by PI staining based flow cytometry analysis (reference value: 41.26 %). It counts as functional.
For assay [14], the system named is HCC827. As to the kind of experiment: Induction of cell cycle arrest in human HCC827 cells assessed as accumulation in G2 phase at 1 uM incubated for 32 hrs by PI staining based flow cytometry analysis (reference value: 8.25 %). It counts as functional.
Assay [15] has as its system HCC827. Description: Induction of cell cycle arrest in human HCC827 cells assessed as accumulation in S phase at 1 uM incubated for 32 hrs by PI staining based flow cytometry analysis (reference value: 41.26 %). It counts as functional.
Assay [16] concerns HCC827. Description: Antiproliferative activity against human HCC827 cells harboring EGFRDel19 mutant assessed as reduction in cell viability incubated for 72 hrs by MTT assay. It counts as functional, cell-based. As to conditions: HCC827, 72 h.
In assay [17] the test system is NCI-H1975. As to the kind of experiment: Antiproliferative activity against human NCI-H1975 cells harboring EGFR L858/T790M mutant assessed as reduction in cell viability incubated for 72 hrs by MTT assay. It counts as functional, cell-based. The conditions noted are these: NCI-H1975, 72 h.
Assay [18] concerns A549. As to the kind of experiment: Antiproliferative activity against human A549 cells harboring EGFR assessed as reduction in cell viability incubated for 72 hrs by MTT assay. As to conditions: A549, 72 h. It counts as functional, cell-based.
Assay [19] relates to A-431. As to the kind of experiment: Antiproliferative activity against human A-431 cells harboring EGFR assessed as reduction in cell viability incubated for 72 hrs by MTT assay. It counts as functional, cell-based. As to conditions: A-431, 72 h.

Sequence of Epidermal growth factor receptor (Homo sapiens) (P00533 whole entry): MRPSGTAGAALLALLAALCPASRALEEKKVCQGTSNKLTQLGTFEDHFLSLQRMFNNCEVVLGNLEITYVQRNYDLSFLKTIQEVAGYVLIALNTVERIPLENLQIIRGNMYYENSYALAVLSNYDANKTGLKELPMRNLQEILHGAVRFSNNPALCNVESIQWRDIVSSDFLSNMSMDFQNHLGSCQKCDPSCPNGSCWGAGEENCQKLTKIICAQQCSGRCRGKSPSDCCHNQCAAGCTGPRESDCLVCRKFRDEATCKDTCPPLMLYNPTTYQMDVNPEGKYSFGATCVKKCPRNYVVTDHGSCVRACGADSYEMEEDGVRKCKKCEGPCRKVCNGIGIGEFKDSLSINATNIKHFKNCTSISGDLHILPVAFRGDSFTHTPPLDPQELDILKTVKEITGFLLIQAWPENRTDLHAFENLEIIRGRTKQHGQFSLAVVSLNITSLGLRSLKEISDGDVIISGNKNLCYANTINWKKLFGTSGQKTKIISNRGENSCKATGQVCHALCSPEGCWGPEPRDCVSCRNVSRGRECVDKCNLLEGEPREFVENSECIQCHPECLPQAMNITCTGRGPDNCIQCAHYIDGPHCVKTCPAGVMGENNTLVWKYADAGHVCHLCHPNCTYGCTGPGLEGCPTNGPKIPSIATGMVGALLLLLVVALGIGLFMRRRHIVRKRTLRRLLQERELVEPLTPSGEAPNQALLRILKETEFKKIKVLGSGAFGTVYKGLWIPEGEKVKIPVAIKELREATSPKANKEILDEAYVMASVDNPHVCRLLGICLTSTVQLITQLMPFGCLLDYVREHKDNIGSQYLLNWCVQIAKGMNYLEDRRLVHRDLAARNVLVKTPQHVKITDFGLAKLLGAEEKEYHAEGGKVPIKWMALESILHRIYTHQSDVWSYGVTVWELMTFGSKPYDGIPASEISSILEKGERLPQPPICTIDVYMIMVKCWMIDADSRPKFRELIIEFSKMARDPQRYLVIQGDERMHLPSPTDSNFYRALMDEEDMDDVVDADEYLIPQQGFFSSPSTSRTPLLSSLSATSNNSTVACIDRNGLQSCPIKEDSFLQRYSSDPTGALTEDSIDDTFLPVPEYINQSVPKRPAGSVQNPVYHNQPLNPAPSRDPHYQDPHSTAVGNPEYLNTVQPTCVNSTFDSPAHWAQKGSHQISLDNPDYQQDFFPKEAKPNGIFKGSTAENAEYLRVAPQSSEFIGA

Consider `CN(C)C1CCN(c2ccc(Nc3cc4c(N5CCC(CO)CC5)nc(Nc5ccc(F)cc5)nc4cn3)nc2)CC1`, for which the Activity in [1] is on record as 78.98%; in assay [4], 8.5%; in assay [5], 43.7%; in [6], 8.35%; in assay [8] it was 4.79%; in [9], 53.88%. The Activity in assay [10] is reported as 16.48%; in assay [11] it was 78.84%; in assay [12], 7.72%; in assay [13], 13.43%; in [14], 7.56%; in assay [15], 13.43%. The inhibition entry in assay [2] was “Active”. Also, in assay [3], the viability at 0.1 µM is 39.5%. Moreover, the viability at 1 µM in assay [7] was determined as 24.9%.

In the case of `C=CC(=O)Nc1cc(Nc2nccc(-c3cn(C)c4ccccc34)n2)c(OC)cc1N(C)CCN(C)C` [OSIMERTINIB], the Activity in assay [1] came out at 80.12%; in assay [4], 5.07%; in [5], 55.86%; in assay [6], 15.24%; in assay [8] it was 6.11%; in [9] it was 59.59%. The Activity in assay [10] came out at 10.32%; in assay [11], 82.45%; in assay [12] it was 8.26%; in assay [13] it was 9.29%; in assay [14], 9.71%; in [15], 10.16%. Besides, the IC50 was determined as 0.036 µM in [16], […] in assay [17], 0.9 µM in assay [18] and […] in assay [19]. The viability at 0.1 µM in assay [3] was 23.8%. Moreover, the viability at 1 µM in assay [7] stood at 24%.

Consider `CN(C)C1CCN(c2ccc(Nc3cc4c(N5CCN(CCCCCCCC(=O)Nc6cccc7c6CN(C6CCC(=O)NC6=O)C7=O)CC5)nc(Nc5ccc(F)cc5)nc4cn3)nc2)CC1` (configuration not stated), for which the IC50 in [16] turned out to be 1.45 µM.

Take `O=C1CCC(N2Cc3c(NC(=O)CCCCCCN4CCN(c5ccc(Nc6cc7c(N8CCC(CO)CC8)nc(Nc8ccc(F)cc8)nc7cn6)nc5)CC4)cccc3C2=O)C(=O)N1` (configuration not stated): the half-inhibitory concentration (IC50) in [16] stood at 1.21 µM.

As for `CN(C)C1CCN(c2ccc(Nc3cc4c(N5CCN(CC(=O)NCCC(=O)Nc6cccc7c6CN(C6CCC(=O)NC6=O)C7=O)CC5)nc(Nc5ccc(F)cc5)nc4cn3)nc2)CC1` (configuration not stated), the IC50 in assay [16] was 4.63 µM; in assay [19], over 10 µM.

Turning to `Cc1ncsc1-c1ccc(CNC(=O)[C@@H]2C[C@@H](O)CN2C(=O)[C@@H](NCCOCCOCCn2cc(CN3CCN(c4ccc(Nc5cc6c(N7CCC(CO)CC7)nc(Nc7ccc(F)cc7)nc6cn5)nc4)CC3)nn2)C(C)(C)C)cc1`, the IC50 was 1.76 µM in assay [16], over 10 µM in assay [17], over 10 µM in assay [18] and over 10 µM in [19].

As for `Cc1ncsc1-c1ccc(CNC(=O)[C@@H]2C[C@@H](O)CN2C(=O)[C@@H](NCCOCCOCCN2CCN(c3ccc(Nc4cc5c(N6CCC(CO)CC6)nc(Nc6ccc(F)cc6)nc5cn4)nc3)CC2)C(C)(C)C)cc1`, the IC50 in assay [16] amounted to 0.34 µM; in assay [17], 2.97 µM; in [19] it was 2.46 µM.

For the compound `Cc1ncsc1-c1ccc(CNC(=O)[C@@H]2C[C@@H](O)CN2C(=O)[C@@H](N)C(C)(C)C)cc1`, the IC50 in assay [16] was over 10 µM.

Regarding `O=C(CN1CCN(c2ccc(Nc3cc4c(N5CCC(CO)CC5)nc(Nc5ccc(F)cc5)nc4cn3)nc2)CC1)NCCC(=O)Nc1cccc2c1CN(C1CCC(=O)NC1=O)C2=O` (configuration not stated), the IC50 in assay [16] was determined as 2.76 µM.

For `Cc1ncsc1-c1ccc(CNC(=O)[C@@H]2C[C@@H](O)CN2C(=O)[C@@H](NCCOCCOCCOCCN2CCN(c3ccc(Nc4cc5c(N6CCC(CO)CC6)nc(Nc6ccc(F)cc6)nc5cn4)nc3)CC2)C(C)(C)C)cc1`, the half-maximal inhibitory concentration (IC50) worked out at 0.71 µM in assay [16], 2.64 µM in [17], 6.39 µM in assay [18] and 2.32 µM in [19].

Take `O=C1CCC(N2Cc3c(NC(=O)CCCCN4CCN(c5ccc(Nc6cc7c(N8CCC(CO)CC8)nc(Nc8ccc(F)cc8)nc7cn6)nc5)CC4)cccc3C2=O)C(=O)N1` (configuration not stated): the IC50 in assay [16] is over 10 µM.

Take `O=C1CCC(N2Cc3c(NC(=O)CCCCCCCn4cc(CN5CCN(c6ccc(Nc7cc8c(N9CCC(CO)CC9)nc(Nc9ccc(F)cc9)nc8cn7)nc6)CC5)nn4)cccc3C2=O)C(=O)N1` (configuration not stated): the IC50 is 7.91 µM in assay [16], over 10 µM in assay [17] and over 10 µM in assay [19].

Take `Cc1ncsc1-c1ccc(CNC(=O)[C@@H]2C[C@@H](O)CN2C(=O)[C@@H](NC(=O)CCCCN2CCN(c3ccc(Nc4cc5c(N6CCC(CO)CC6)nc(Nc6ccc(F)cc6)nc5cn4)nc3)CC2)C(C)(C)C)cc1`: the IC50 in assay [16] is 1.49 µM.

Take `Nc1cccc2c1CN(C1CCC(=O)NC1=O)C2=O` (configuration not stated) [LENALIDOMIDE]: the IC50 in [16] is over 10 µM.

On to `O=C1CCC(N2Cc3c(NC(=O)CCCCCN4CCN(c5ccc(Nc6cc7c(N8CCC(CO)CC8)nc(Nc8ccc(F)cc8)nc7cn6)nc5)CC4)cccc3C2=O)C(=O)N1` (configuration not stated), for which the IC50 in [16] was over 10 µM.
